Several values for one entry are separate records, joined by “and”; a condition that tells them apart may be missing. Identical values can stand only once. Numbered stars: 1 amine (or outer) side, 2 acyl side, 3 side chain; on linkers, the order of the positions; unused ones are H or OH. Square brackets hold non-standard residues; d marks the D form. Peptide text beside a SMILES is read from it. * marks the point of attachment. cisHyp = O=C(O)[C@@H]1C[C@H](O)CN1; Hyp = O=C(O)[C@@H]1C[C@@H](O)CN1; Chg = N[C@H](C(=O)O)C1CCCCC1; Phg = N[C@H](C(=O)O)c1ccccc1; Tle = CC(C)(C)[C@H](N)C(=O)O; NMeV = CN[C@H](C(=O)O)C(C)C; αMeP = C[C@@]1(C(=O)O)CCCN1; Pip = O=C(O)[C@@H]1CCCCN1; Ac6c = NC1(C(=O)O)CCCCC1; Ac5c = NC1(C(=O)O)CCCC1; Cbz = O=C(OCc1ccccc1)*; CO = O=C([*:1])[*:2]; Bz = O=C(c1ccccc1)*; NHPh = c1ccc(N*)cc1; CH2F = FC*
How the values were obtained:
MALT1 [1] = biological target: T1, MALT1 (Homo sapiens, UniProt Q9UDY8); test: MALT1 biochemical assay; details: at 5 μM
T1 sequence (Q9UDY8 1-824): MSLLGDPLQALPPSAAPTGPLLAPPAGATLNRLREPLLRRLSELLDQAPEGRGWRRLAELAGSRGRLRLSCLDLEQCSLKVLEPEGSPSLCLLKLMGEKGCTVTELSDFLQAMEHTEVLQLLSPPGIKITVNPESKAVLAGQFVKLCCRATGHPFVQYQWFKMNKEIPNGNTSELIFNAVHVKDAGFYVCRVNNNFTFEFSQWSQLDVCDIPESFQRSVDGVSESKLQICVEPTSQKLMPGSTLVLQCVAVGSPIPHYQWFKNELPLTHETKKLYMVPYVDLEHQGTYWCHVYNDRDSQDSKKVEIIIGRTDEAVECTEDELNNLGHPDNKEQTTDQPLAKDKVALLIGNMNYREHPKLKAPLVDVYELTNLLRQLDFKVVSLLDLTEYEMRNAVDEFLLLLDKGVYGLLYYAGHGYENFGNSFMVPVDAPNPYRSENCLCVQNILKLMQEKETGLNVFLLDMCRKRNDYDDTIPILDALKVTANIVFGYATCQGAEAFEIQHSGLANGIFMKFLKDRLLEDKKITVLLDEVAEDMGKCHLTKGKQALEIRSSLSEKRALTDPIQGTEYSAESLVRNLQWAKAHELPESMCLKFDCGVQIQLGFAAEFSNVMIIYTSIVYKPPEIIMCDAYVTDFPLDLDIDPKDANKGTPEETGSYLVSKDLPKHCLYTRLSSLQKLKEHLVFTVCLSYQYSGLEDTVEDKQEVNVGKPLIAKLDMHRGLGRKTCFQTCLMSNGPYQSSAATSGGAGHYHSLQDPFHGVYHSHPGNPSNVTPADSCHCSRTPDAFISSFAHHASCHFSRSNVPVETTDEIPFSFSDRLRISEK

MALT1 protease = biological target: T2, MALT1 protease (Homo sapiens, UniProt Q9UDY8); format: cell-based; details: Cell (Glo), GloSensor reporter, PMA/IO activated Raji cells
T2 sequence (Q9UDY8 1-824): T1 sequence (Q9UDY8 1-824)

[2] = test system: RelB cleavage (MALT1 protease activity) in OCI-Ly3 cells; test: Inhibition of RelB cleavage in OCI-Ly3 cells by Western blot; format: cell-based; details: at 20 μM
OCI-Ly3 cells = test: OCI-Ly3 cell proliferation assay
trypsin = test: Protease selectivity profiling, trypsin; format: biochemical; details: at 100 nM
[3] = Plasma levels upon IV and IP dosing in mice; format: in vivo
MALT1 [4] = biological target: T1, MALT1; details: PD studies ref 20; cited from earlier work
[5] = test system: ABC-DLBCL xenograft models; details: two ABC-DLBCL xenograft models ref 20; cited from earlier work
calpain = test: Protease selectivity profiling, calpain; format: biochemical; details: at 100 nM
cathepsin B = cathepsin B (Homo sapiens, UniProt P07858); test: Protease selectivity profiling, cathepsin B; format: biochemical; details: at 100 nM
cathepsin S = cathepsin S (Homo sapiens, UniProt P25774); test: Protease selectivity profiling, cathepsin S; format: biochemical; details: at 100 nM
cathepsin S, sequence (P25774 115-331, species assumed): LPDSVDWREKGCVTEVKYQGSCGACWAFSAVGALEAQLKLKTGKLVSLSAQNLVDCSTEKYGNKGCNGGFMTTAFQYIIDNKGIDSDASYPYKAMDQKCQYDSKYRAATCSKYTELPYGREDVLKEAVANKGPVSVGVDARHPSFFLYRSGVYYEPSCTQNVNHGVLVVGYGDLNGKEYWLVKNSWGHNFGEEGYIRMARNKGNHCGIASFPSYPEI

[6] = test system: panel of 26 proteases, primarily caspases and cathepsins; test: Selectivity panel of 26 proteases; format: biochemical; details: profiling at lower concentrations

SMILES | IC50 (MALT1 protease) | also measured
CCC(=O)[C@H](CCCNC(=N)N)NC(=O)[C@@H]1CCCN1C(=O)[C@@H](NC(=O)[C@H](CC(C)C)NC(=O)OCc1ccccc1)C(C)C [Compound 2] | > 20 µM | activity in the biochemical assay (MALT1 [1]): no activity; inhibition of RelB cleavage [2]: no effects; activity in the cell (proliferation) assay, in words (OCI-Ly3 cells): no activity
CN[C@H](C(=O)N1CCC[C@H]1C(=O)N[C@@H](CCCNC(=N)N)C(=O)CF)C(C)C [Compound 3] (H-[NMeV]-Pro-Arg-CH2F) | > 20 µM | activity in the cell (proliferation) assay, in words (OCI-Ly3 cells): inactive
CC(C)[C@H](NC(=O)OCc1ccccc1)C(=O)N1CCC[C@H]1C(=O)N[C@@H](CCCNC(=N)N)C(=O)CF [Compound 4, Z-VPR-fmk] (Cbz-Val-Pro-Arg-CH2F) | 1.96 µM | 
CC(C)[C@@H](C(=O)N1CCC[C@H]1C(=O)N[C@@H](CCCNC(=N)N)C(=O)CF)N(C)C(=O)OCc1ccccc1 [Compound 5] (Cbz-[NMeV]-Pro-Arg-CH2F) | 3 µM | 
CC(C)[C@H](NC(=O)c1ccccc1)C(=O)N1CCC[C@H]1C(=O)N[C@@H](CCCNC(=N)N)C(=O)CF [Compound 19] (Bz-Val-Pro-Arg-CH2F) | 0.64 µM | 
CC(C)[C@H](NC(=O)c1ccccc1Br)C(=O)N1CCC[C@H]1C(=O)N[C@@H](CCCNC(=N)N)C(=O)CF [Compound 20] | 1.11 µM | 
CC(C)[C@H](NC(=O)c1cccc(Br)c1)C(=O)N1CCC[C@H]1C(=O)N[C@@H](CCCNC(=N)N)C(=O)CF [Compound 21] | 0.18 µM | 
CC(C)[C@H](NC(=O)c1ccc(Br)cc1)C(=O)N1CCC[C@H]1C(=O)N[C@@H](CCCNC(=N)N)C(=O)CF [Compound 22] | 0.071 µM and 0.07 µM | potency against trypsin (trypsin): > 80%; plasma levels [3]: moderate plasma levels for several hours; in vivo inhibition of MALT1 activity (MALT1 [4]): in vivo inhibition of MALT1 activity; effects on tumor growth [5]: moderate effects on tumor growth
CC(C)[C@H](NC(=O)c1ccc(Cl)cc1)C(=O)N1CCC[C@H]1C(=O)N[C@@H](CCCNC(=N)N)C(=O)CF [Compound 23] | 0.18 µM | 
CC(C)[C@H](NC(=O)c1ccc(C#N)cc1)C(=O)N1CCC[C@H]1C(=O)N[C@@H](CCCNC(=N)N)C(=O)CF [Compound 24] | 0.71 µM | 
CC(C)[C@H](NC(=O)c1ccc(C(F)(F)F)cc1)C(=O)N1CCC[C@H]1C(=O)N[C@@H](CCCNC(=N)N)C(=O)CF [Compound 25] | 0.23 µM | 
COc1ccc(C(=O)N[C@H](C(=O)N2CCC[C@H]2C(=O)N[C@@H](CCCNC(=N)N)C(=O)CF)C(C)C)cc1 [Compound 26] | 0.8 µM | 
CC(C)c1ccc(C(=O)N[C@H](C(=O)N2CCC[C@H]2C(=O)N[C@@H](CCCNC(=N)N)C(=O)CF)C(C)C)cc1 [Compound 27] | 0.07 µM | 
CC(C)[C@H](NC(=O)C1CCCCC1)C(=O)N1CCC[C@H]1C(=O)N[C@@H](CCCNC(=N)N)C(=O)CF [Compound 28] | 0.64 µM | 
CC(C)[C@H](NC(=O)Nc1ccccc1)C(=O)N1CCC[C@H]1C(=O)N[C@@H](CCCNC(=N)N)C(=O)CF [Compound 29] ({NHPh-CO}-Val-Pro-Arg-CH2F) | 0.17 µM | 
CC(C)[C@H](NC(=O)Nc1ccc(Cl)cc1)C(=O)N1CCC[C@H]1C(=O)N[C@@H](CCCNC(=N)N)C(=O)CF [Compound 30] | 0.11 µM | 
CC(C)C[C@H](NC(=O)OCc1ccccc1)C(=O)N1CCC[C@H]1C(=O)N[C@@H](CCCNC(=N)N)C(=O)CF [Compound 31] (Cbz-Leu-Pro-Arg-CH2F) | 3.42 µM | 
CC[C@H](C)[C@H](NC(=O)OCc1ccccc1)C(=O)N1CCC[C@H]1C(=O)N[C@@H](CCCNC(=N)N)C(=O)CF [Compound 32] (Cbz-Ile-Pro-Arg-CH2F) | 1.86 µM | 
N=C(N)NCCC[C@H](NC(=O)[C@@H]1CCCN1C(=O)[C@H](Cc1ccccc1)NC(=O)OCc1ccccc1)C(=O)CF [Compound 33] | 2.03 µM | 
N=C(N)NCCC[C@H](NC(=O)[C@@H]1CCCN1C(=O)[C@@H](NC(=O)OCc1ccccc1)C1CCCCC1)C(=O)CF [Compound 34] (Cbz-[Chg]-Pro-Arg-CH2F) | 0.15 µM | 

SMILES | IC50 (MALT1 protease) | also measured
CC(C)(C)[C@H](NC(=O)OCc1ccccc1)C(=O)N1CCC[C@H]1C(=O)N[C@@H](CCCNC(=N)N)C(=O)CF [Compound 35] (Cbz-[Tle]-Pro-Arg-CH2F) | 0.71 µM | 
N=C(N)NCCC[C@H](NC(=O)[C@@H]1CCCN1C(=O)[C@@H](NC(=O)OCc1ccccc1)c1ccccc1)C(=O)CF [Compound 36] (Cbz-[Phg]-Pro-Arg-CH2F) | 1.43 µM | 
N=C(N)NCCC[C@H](NC(=O)[C@@H]1CCCN1C(=O)C1(NC(=O)OCc2ccccc2)CCCCC1)C(=O)CF [Compound 37] (Cbz-[Ac6c]-Pro-Arg-CH2F) | 6 µM | 
N=C(N)NCCC[C@H](NC(=O)[C@@H]1CCCN1C(=O)C1(NC(=O)OCc2ccccc2)CCCC1)C(=O)CF [Compound 38] (Cbz-[Ac5c]-Pro-Arg-CH2F) | 5.38 µM | 
CC(C)[C@H](NC(=O)OCc1ccccc1)C(=O)N[C@@H](CO)C(=O)N[C@@H](CCCNC(=N)N)C(=O)CF [Compound 39] | 0.149 µM | 
CC(C)[C@H](NC(=O)OCc1ccccc1)C(=O)N1CCCC[C@H]1C(=O)N[C@@H](CCCNC(=N)N)C(=O)CF [Compound 40] (Cbz-Val-[Pip]-Arg-CH2F) | 0.144 µM | 
CC(C)[C@H](NC(=O)OCc1ccccc1)C(=O)N1C[C@H](O)C[C@H]1C(=O)N[C@@H](CCCNC(=N)N)C(=O)CF [Compound 41] (Cbz-Val-[Hyp]-Arg-CH2F) | 0.209 µM | 
CC(C)[C@H](NC(=O)OCc1ccccc1)C(=O)N1C[C@@H](O)C[C@H]1C(=O)N[C@@H](CCCNC(=N)N)C(=O)CF [Compound 42] (Cbz-Val-[cisHyp]-Arg-CH2F) | 0.239 µM | 
CC(C)[C@H](NC(=O)OCc1ccccc1)C(=O)N1CCC[C@@]1(C)C(=O)N[C@@H](CCCNC(=N)N)C(=O)CF [Compound 43] (Cbz-Val-[αMeP]-Arg-CH2F) | 0.873 µM | 
CC(C)[C@H](NC(=O)c1ccc(Br)cc1)C(=O)N[C@@H](CO)C(=O)N[C@@H](CCCNC(=N)N)C(=O)CF [Compound 44] |  | activity against calpain (calpain): active; activity against cathepsin B (cathepsin B): active; activity against cathepsin S (cathepsin S): active
CC(C)[C@H](NC(=O)c1ccc(Br)cc1)C(=O)N1C[C@H](O)C[C@H]1C(=O)N[C@@H](CCCNC(=N)N)C(=O)CF [Compound 45] | 0.085 µM | 
CC(C)[C@H](NC(=O)c1ccc(Br)cc1)C(=O)N1CCCC[C@H]1C(=O)N[C@@H](CCCNC(=N)N)C(=O)CF [Compound 46] | 0.327 µM | selectivity in protease panel [6]: the most selective compound; activity against cathepsin S (cathepsin S): highest activity
CC(C)[C@H](NC(=O)c1ccc(Br)cc1)C(=O)N1CC[C@H]1C(=O)N[C@@H](CCCNC(=N)N)C(=O)CF [Compound 47] | 0.219 µM | 
CC(C)[C@H](NC(=O)c1ccc(Br)cc1)C(=O)N1COC[C@H]1C(=O)N[C@@H](CCCNC(=N)N)C(=O)CF [Compound 48] | 0.077 µM | 
CC(C)[C@H](NC(=O)c1ccc(Br)cc1)C(=O)N1CCOC[C@H]1C(=O)N[C@@H](CCCNC(=N)N)C(=O)CF [Compound 49] | 0.174 µM | 
CC(C)[C@H](NC(=O)c1ccc(Br)cc1)C(=O)N1CCC[C@@H]1C(=O)N[C@@H](CCCNC(=N)N)C(=O)CF [Compound 50] | 17.5 µM | 
N=C(N)NCCC[C@H](NC(=O)[C@@H]1CCCN1C(=O)[C@@H](NC(=O)c1ccc(Br)cc1)C1CCCCC1)C(=O)CF [Compound 51] | 0.043 µM | 
N=C(N)NCCC[C@H](NC(=O)[C@H](CO)NC(=O)[C@@H](NC(=O)c1ccc(Br)cc1)C1CCCCC1)C(=O)CF [Compound 52] | 0.087 µM | 
N=C(N)NCCC[C@H](NC(=O)[C@@H]1C[C@@H](O)CN1C(=O)[C@@H](NC(=O)c1ccc(Br)cc1)C1CCCCC1)C(=O)CF [Compound 53] | 0.065 µM | 
CC(C)[C@H](NC(=O)OCc1ccccc1)C(=O)N[C@@H](CCCNC(=N)N)C(=O)N1CCC[C@H]1C(=O)N[C@@H](CCCNC(=N)N)C(=O)CF [Z-VRPR-fmk, reference compound] |  | inhibition of RelB cleavage [2]: partial inhibition

— PMC12883167 (Bioorganic & medicinal chemistry letters, 2019)
